Source: the NIST ThermoML archive (doi:10.1016/j.fluid.2013.10.029)

What was measured:
[1] = Liquid; for vapor or sublimation pressure: Ebulliometric method (Recirculating still); for mass density: 101 kPa, Vibrating tube method
[2] = xn = mol fraction of the nth substance listed; settings: 101.33 kPa, Liquid, Vibrating tube method, x2 = 0
[3] = excess molar enthalpy (molar enthalpy of mixing); xn = mol fraction of the nth substance listed; settings: 298.15 K, 101 kPa, Liquid, isothermal titration calorimeter

c1ccccc1 [benzene]
[1]
Settings | vapor or sublimation pressure [kPa]
338.15 K | 62.1
348.15 K | 86.4

C1CCCCC1 [cyclohexane]
[1]
Settings | vapor or sublimation pressure [kPa]
338.15 K | 61.5
348.15 K | 84.7

c1ccncc1 [pyridine]
[1]
Settings | mass density [kg/m3] | vapor or sublimation pressure [kPa]
298.15 K | 978.01 | –
308.15 K | 967.91 | –
318.15 K | 957.76 | –
328.15 K | 947.56 | –
338.15 K | 937.3 | –
353.15 K | – | 32.3
363.15 K | – | 45.9
373.15 K | – | 63.7

c1ccncc1 [pyridine] + c1cc[nH]c1
[2]
Settings | mass density [kg/m3]
298.15 K | 978.01
308.15 K | 967.91
318.15 K | 957.76
328.15 K | 947.56
338.15 K | 937.3

c1cc[nH]c1 [pyrrole]
[1]
Settings | mass density [kg/m3] | vapor or sublimation pressure [kPa]
298.15 K | 965.54 | –
308.15 K | 956.83 | –
318.15 K | 948.03 | –
328.15 K | 939.14 | –
338.15 K | 930.13 | 9.4
348.15 K | – | 14.6
353.15 K | – | 18
358.15 K | – | 21.9
363.15 K | – | 26.8
373.15 K | – | 38.5

c1cc[nH]c1 [pyrrole] + C1CCCCC1
[3]
Settings | excess molar enthalpy [kJ/mol]
x1 = 0.015 | 0.234
x1 = 0.03 | 0.414
x1 = 0.0451 | 0.548
x1 = 0.0601 | 0.65
x1 = 0.0752 | 0.732
x1 = 0.0905 | 0.804
x1 = 0.1057 | 0.867
x1 = 0.1208 | 0.924
x1 = 0.1358 | 0.973
x1 = 0.1543 | 1.03
x1 = 0.1692 | 1.07
x1 = 0.184 | 1.1
x1 = 0.1989 | 1.14
x1 = 0.2139 | 1.17
x1 = 0.2288 | 1.2
x1 = 0.2437 | 1.22
x1 = 0.2587 | 1.24
x1 = 0.2737 | 1.26
x1 = 0.2887 | 1.28
x1 = 0.3037 | 1.3
x1 = 0.3186 | 1.32
x1 = 0.3337 | 1.34
x1 = 0.3485 | 1.35
x1 = 0.3677 | 1.37
x1 = 0.3829 | 1.38
x1 = 0.3982 | 1.39
x1 = 0.4135 | 1.4
x1 = 0.4287 | 1.41
x1 = 0.444 | 1.42
x1 = 0.4592 | 1.42
x1 = 0.4745 | 1.42
x1 = 0.4898 | 1.43
x1 = 0.505 | 1.43
x1 = 0.5203 | 1.43
x1 = 0.5355 | 1.42
x1 = 0.5507 | 1.42
x1 = 0.566 | 1.42
x1 = 0.5812 | 1.41
x1 = 0.5964 | 1.4
x1 = 0.6116 | 1.39
x1 = 0.6269 | 1.38
x1 = 0.6421 | 1.36
x1 = 0.6573 | 1.34
x1 = 0.6725 | 1.33
x1 = 0.6878 | 1.3
x1 = 0.703 | 1.28
x1 = 0.7182 | 1.25
x1 = 0.731 | 1.21
x1 = 0.7468 | 1.17
x1 = 0.7627 | 1.13
x1 = 0.7786 | 1.08
x1 = 0.7945 | 1.04
x1 = 0.8104 | 0.987
x1 = 0.8263 | 0.932
x1 = 0.8421 | 0.873
x1 = 0.858 | 0.808
x1 = 0.874 | 0.739
x1 = 0.8899 | 0.664
x1 = 0.9058 | 0.583
x1 = 0.9218 | 0.496
x1 = 0.9377 | 0.403
x1 = 0.9537 | 0.304
x1 = 0.9691 | 0.201
x1 = 0.9846 | 0.0929

c1cc[nH]c1 [pyrrole] + CCCCCO
[3]
Settings | excess molar enthalpy [kJ/mol]
x1 = 0.0374 | 0.0355
x1 = 0.0962 | 0.156
x1 = 0.1388 | 0.269
x1 = 0.1801 | 0.388
x1 = 0.2202 | 0.504
x1 = 0.259 | 0.614
x1 = 0.2967 | 0.716
x1 = 0.3333 | 0.807
x1 = 0.3689 | 0.888
x1 = 0.4034 | 0.958
x1 = 0.437 | 1.02
x1 = 0.4696 | 1.06
x1 = 0.5014 | 1.1
x1 = 0.5323 | 1.13
x1 = 0.5604 | 1.13
x1 = 0.5624 | 1.14
x1 = 0.5804 | 1.14
x1 = 0.5916 | 1.15
x1 = 0.6004 | 1.14
x1 = 0.6202 | 1.15
x1 = 0.6204 | 1.14
x1 = 0.6404 | 1.13
x1 = 0.648 | 1.14
x1 = 0.6604 | 1.12
x1 = 0.6616 | 1.13
x1 = 0.6804 | 1.11
x1 = 0.7004 | 1.08
x1 = 0.7204 | 1.06
x1 = 0.7404 | 1.03
x1 = 0.7604 | 0.987
x1 = 0.7804 | 0.944
x1 = 0.8004 | 0.894
x1 = 0.8204 | 0.838
x1 = 0.8404 | 0.775
x1 = 0.8603 | 0.706
x1 = 0.8803 | 0.629
x1 = 0.9002 | 0.544
x1 = 0.9202 | 0.452
x1 = 0.9401 | 0.351
x1 = 0.9601 | 0.241
x1 = 0.98 | 0.121

c1cc[nH]c1 [pyrrole] + CCCCO
[3]
Settings | excess molar enthalpy [kJ/mol]
x1 = 0.0262 | 0.019
x1 = 0.0776 | 0.104
x1 = 0.1154 | 0.19
x1 = 0.1526 | 0.284
x1 = 0.189 | 0.381
x1 = 0.2248 | 0.475
x1 = 0.2599 | 0.566
x1 = 0.2944 | 0.65
x1 = 0.3283 | 0.727
x1 = 0.3616 | 0.796
x1 = 0.3943 | 0.857
x1 = 0.4265 | 0.909
x1 = 0.4581 | 0.953
x1 = 0.4891 | 0.987
x1 = 0.5196 | 1.01
x1 = 0.5497 | 1.03
x1 = 0.5703 | 1.03
x1 = 0.5792 | 1.04
x1 = 0.5803 | 1.03
x1 = 0.6003 | 1.03
x1 = 0.6082 | 1.04
x1 = 0.6203 | 1.03
x1 = 0.6225 | 1.04
x1 = 0.6403 | 1.02
x1 = 0.6603 | 1.01
x1 = 0.6803 | 0.994
x1 = 0.7003 | 0.974
x1 = 0.7203 | 0.949
x1 = 0.7403 | 0.919
x1 = 0.7603 | 0.885
x1 = 0.7803 | 0.845
x1 = 0.8002 | 0.8
x1 = 0.8202 | 0.75
x1 = 0.8403 | 0.694
x1 = 0.8603 | 0.631
x1 = 0.8802 | 0.563
x1 = 0.9002 | 0.488
x1 = 0.9201 | 0.407
x1 = 0.9401 | 0.318
x1 = 0.9601 | 0.223
x1 = 0.98 | 0.119

c1cc[nH]c1 [pyrrole] + CCCO
[3]
Settings | excess molar enthalpy [kJ/mol]
x1 = 0.0299 | 0.0296
x1 = 0.0598 | 0.0602
x1 = 0.0897 | 0.107
x1 = 0.1197 | 0.164
x1 = 0.1497 | 0.229
x1 = 0.1796 | 0.297
x1 = 0.2096 | 0.367
x1 = 0.2396 | 0.436
x1 = 0.2696 | 0.503
x1 = 0.2996 | 0.568
x1 = 0.3296 | 0.627
x1 = 0.3596 | 0.682
x1 = 0.3896 | 0.731
x1 = 0.4197 | 0.773
x1 = 0.4497 | 0.808
x1 = 0.4652 | 0.833
x1 = 0.4797 | 0.836
x1 = 0.4902 | 0.858
x1 = 0.5202 | 0.883
x1 = 0.5502 | 0.9
x1 = 0.5803 | 0.909
x1 = 0.6103 | 0.91
x1 = 0.6403 | 0.903
x1 = 0.6703 | 0.888
x1 = 0.7003 | 0.863
x1 = 0.7303 | 0.829
x1 = 0.7603 | 0.785
x1 = 0.7903 | 0.731
x1 = 0.8203 | 0.665
x1 = 0.8503 | 0.587
x1 = 0.8802 | 0.497
x1 = 0.9101 | 0.394
x1 = 0.9401 | 0.276
x1 = 0.97 | 0.142
